In PMC6429214, “Design, Synthesis and Biological Evaluation of Isoxazole-Based CK1 Inhibitors Modified with Chiral Pyrrolidine Scaffolds” (Molecules, 2019):

How the values were obtained:
Assay in all cases: 33PanQinase panel
Format in all cases: biochemical
CDC7/DBF4 = biological target: T1, CDC7/DBF4 (Homo sapiens, UniProt O00311); settings: CDC7/DBF4, 1 µM; read-out: Residual Activity (%)
T1 construct: purchased ProQinase
Experimental: (§1) Figure 5 Dendrogram representation of the selectivity profile of 29d at a concentration of 1 μM in a panel of 320 wild-type kinases (ProQinase, Freiburg, Germany). The residual kinase activity was determined compared to DMSO control. Images were generated using TREEspot Software Tool, DISCOVERX CORPORATION 2010. […]
(§2) Table S2. Selectivity profile of compound 29d. The inhibitor has been screened at a concentration of 1 µM over a panel of 320 wild-type protein kinases by ProQinase GmbH (Freiburg, Germany) using an activity-based radiometric 33PanQinase® assay. Results are presented as percentage of residual kinase activity relative to […]
(§3) control. The final DMSO concentration was 1 % in each reaction-mix. Classification of protein kinase families refers to Manning et al. (Manning, G.; Whyte, D. B.; Martinez, R.; Hunter, T.; Sudarsanam, S. The Protein Kinase Complement of the Human Genome. Science 2002, 298, 1912–1934): AGC = containing PKA, PKG, PKC families; […] = containing Cdk, MAPK, GSK3, CLK families; STE = homologs of yeast sterile 7, sterile 11, sterile 20 kinases; TK = tyrosine kinase; TKL = tyrosine kinase-like.
(§4) Kinase name Kinase family Residual Activity (%)

ACV-R2A = biological target: T2, ACV-R2A (Homo sapiens, UniProt P27037); settings: read-out: Residual Activity (%)
T2 construct: purchased ProQinase
Experimental: as §1, §2, §3, §4

EPHA5 = biological target: T3, EPHA5 (Homo sapiens, UniProt P54756); settings: EPHA5, 1 µM; read-out: Residual Activity (%)
T3 construct: purchased ProQinase
Experimental: as §1, §2, §3, §4

CAMK4 = biological target: T4, CAMK4 (Homo sapiens, UniProt Q16566); settings: CAMK4, 1 µM; read-out: Residual Activity (%)
T4 construct: purchased ProQinase
Experimental: as §1, §2, §3, §4

NLK = biological target: T5, NLK (Homo sapiens, UniProt Q9UBE8); settings: read-out: Residual Activity (%)
T5 construct: purchased ProQinase
Experimental: as §1, §2, §3, §4

RPS6KA3 = biological target: T6, RPS6KA3 (Homo sapiens, UniProt P51812); settings: RPS6KA3, 1 µM; read-out: Residual Activity (%)
T6 construct: purchased ProQinase
Experimental: as §1, §2, §3, §4

MYLK2 = biological target: T7, MYLK2 (Homo sapiens, UniProt Q9H1R3); settings: MYLK2, 1 µM; read-out: Residual Activity (%)
T7 construct: purchased ProQinase
Experimental: as §1, §2, §3, §4

p38-beta = biological target: T8, p38-beta (Homo sapiens, UniProt Q15759); settings: read-out: Residual Activity (%)
T8 construct: purchased ProQinase
Experimental: as §1, §2, §3, §4

CK1-gamma2 = biological target: T9, CK1-gamma2 (Homo sapiens, UniProt P78368); settings: CK1-gamma2, 1 µM; read-out: Residual Activity (%)
T9 construct: purchased ProQinase
Experimental: as §1, §2, §3, §4

SIK3 = biological target: T10, SIK3 (Homo sapiens, UniProt Q9Y2K2); settings: SIK3, 1 µM; read-out: Residual Activity (%)
T10 construct: purchased ProQinase
Experimental: as §1, §2, §3, §4

NEK7 = biological target: T11, NEK7 (Homo sapiens, UniProt Q8TDX7); settings: NEK7, 1 µM; read-out: Residual Activity (%)
T11 construct: purchased ProQinase
Experimental: as §1, §2, §3, §4

CDK1/CycB1 = biological target: T12, CDK1/CycB1 (Homo sapiens, UniProt P06493); settings: CDK1/CycB1, 1 µM; read-out: Residual Activity (%)
T12 construct: purchased ProQinase
Experimental: as §1, §2, §3, §4

IKK-epsilon = biological target: T13, IKK-epsilon (Homo sapiens, UniProt Q14164); settings: read-out: Residual Activity (%)
T13 construct: purchased ProQinase
Experimental: as §1, §2, §3, §4

PHKG2 = biological target: T14, PHKG2 (Homo sapiens, UniProt P15735); settings: PHKG2, 1 µM; read-out: Residual Activity (%)
T14 construct: purchased ProQinase
Experimental: as §1, §2, §3, §4

GSK3-alpha = biological target: T15, GSK3-alpha (Homo sapiens, UniProt P49840); settings: read-out: Residual Activity (%)
T15 construct: purchased ProQinase
Experimental: as §1, §2, §3, §4

BRSK1 = biological target: T16, BRSK1 (Homo sapiens, UniProt Q8TDC3); settings: BRSK1, 1 µM; read-out: Residual Activity (%)
T16 construct: purchased ProQinase
Experimental: as §1, §2, §3, §4

HIPK1 = biological target: T17, HIPK1 (Homo sapiens, UniProt Q86Z02); settings: HIPK1, 1 µM; read-out: Residual Activity (%)
T17 construct: purchased ProQinase
Experimental: as §1, §2, §3, §4

CDK4/CycD3 = biological target: T18, CDK4/CycD3 (Homo sapiens, UniProt P11802); settings: CDK4/CycD3, 1 µM; read-out: Residual Activity (%)
T18 construct: purchased ProQinase
Experimental: as §1, §2, §3, §4

VEGF-R3 = biological target: T19, VEGF-R3 (Homo sapiens, UniProt P35916); settings: VEGF-R3, 1 µM; read-out: Residual Activity (%)
T19 construct: purchased ProQinase
Experimental: as §1, §2, §3, §4

JAK1 aa583-1154 wt = biological target: T20, JAK1 aa583-1154 wt (Homo sapiens, UniProt P23458); settings: read-out: Residual Activity (%)
T20 construct: purchased ProQinase
Experimental: as §1, §2, §3, §4

RPS6KA2 = biological target: T21, RPS6KA2 (Homo sapiens, UniProt Q15349); settings: RPS6KA2, 1 µM; read-out: Residual Activity (%)
T21 construct: purchased ProQinase
Experimental: as §1, §2, §3, §4

EPHA4 = biological target: T22, EPHA4 (Homo sapiens, UniProt P54764); settings: EPHA4, 1 µM; read-out: Residual Activity (%)
T22 construct: purchased ProQinase
Experimental: as §1, §2, §3, §4

SLK = biological target: T23, SLK (Homo sapiens, UniProt Q9H2G2); settings: read-out: Residual Activity (%)
T23 construct: purchased ProQinase
Experimental: as §1, §2, §3, §4

AMPK-alpha1 aa1-550 = biological target: T24, AMPK-alpha1 aa1-550 (Homo sapiens, UniProt Q13131); settings: AMPK-alpha1 aa1-550, 1 µM; read-out: Residual Activity (%)
T24 construct: purchased ProQinase
Experimental: as §1, §2, §3, §4

Aurora-A = biological target: T25, Aurora-A (Homo sapiens, UniProt O14965); settings: read-out: Residual Activity (%)
T25 construct: purchased ProQinase
Experimental: as §1, §2, §3, §4

DCAMKL2 = biological target: T26, DCAMKL2 (Homo sapiens, UniProt Q8N568); settings: DCAMKL2, 1 µM; read-out: Residual Activity (%)
T26 construct: purchased ProQinase
Experimental: as §1, §2, §3, §4

TTK = biological target: T27, TTK (Homo sapiens, UniProt P33981); settings: read-out: Residual Activity (%)
T27 construct: purchased ProQinase
Experimental: as §1, §2, §3, §4

SRPK1 = biological target: T28, SRPK1 (Homo sapiens, UniProt Q96SB4); settings: SRPK1, 1 µM; read-out: Residual Activity (%)
T28 construct: purchased ProQinase
Experimental: as §1, §2, §3, §4

MEKK2 = biological target: T29, MEKK2 (Homo sapiens, UniProt Q9Y2U5); settings: MEKK2, 1 µM; read-out: Residual Activity (%)
T29 construct: purchased ProQinase
Experimental: as §1, §2, §3, §4

T2 sequence (P27037 20-513): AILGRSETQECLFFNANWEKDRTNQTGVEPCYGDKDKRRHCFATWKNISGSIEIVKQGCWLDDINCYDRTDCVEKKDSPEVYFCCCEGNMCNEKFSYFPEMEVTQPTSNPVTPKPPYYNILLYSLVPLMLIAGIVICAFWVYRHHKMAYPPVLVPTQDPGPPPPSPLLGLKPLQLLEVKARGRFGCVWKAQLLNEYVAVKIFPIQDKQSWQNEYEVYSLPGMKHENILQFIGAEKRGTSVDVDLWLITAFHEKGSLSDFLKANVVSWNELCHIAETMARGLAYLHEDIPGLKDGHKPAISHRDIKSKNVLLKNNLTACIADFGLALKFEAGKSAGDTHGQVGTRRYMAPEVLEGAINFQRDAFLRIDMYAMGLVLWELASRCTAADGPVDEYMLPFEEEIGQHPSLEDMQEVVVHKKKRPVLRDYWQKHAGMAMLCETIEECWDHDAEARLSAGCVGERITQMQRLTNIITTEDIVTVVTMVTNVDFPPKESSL
T14 sequence (P15735 whole entry): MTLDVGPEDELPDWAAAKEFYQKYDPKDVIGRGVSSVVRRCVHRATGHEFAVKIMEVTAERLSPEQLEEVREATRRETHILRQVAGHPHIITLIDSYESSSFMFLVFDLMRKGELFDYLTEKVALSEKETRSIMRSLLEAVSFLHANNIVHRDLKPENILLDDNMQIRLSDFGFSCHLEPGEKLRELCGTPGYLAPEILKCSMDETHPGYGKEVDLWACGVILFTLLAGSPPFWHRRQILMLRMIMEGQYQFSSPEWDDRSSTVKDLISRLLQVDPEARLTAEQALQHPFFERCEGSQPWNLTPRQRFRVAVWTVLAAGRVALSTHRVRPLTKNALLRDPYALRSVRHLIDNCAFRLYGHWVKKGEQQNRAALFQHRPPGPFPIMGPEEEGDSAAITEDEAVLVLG
T20 sequence (P23458 583-1154): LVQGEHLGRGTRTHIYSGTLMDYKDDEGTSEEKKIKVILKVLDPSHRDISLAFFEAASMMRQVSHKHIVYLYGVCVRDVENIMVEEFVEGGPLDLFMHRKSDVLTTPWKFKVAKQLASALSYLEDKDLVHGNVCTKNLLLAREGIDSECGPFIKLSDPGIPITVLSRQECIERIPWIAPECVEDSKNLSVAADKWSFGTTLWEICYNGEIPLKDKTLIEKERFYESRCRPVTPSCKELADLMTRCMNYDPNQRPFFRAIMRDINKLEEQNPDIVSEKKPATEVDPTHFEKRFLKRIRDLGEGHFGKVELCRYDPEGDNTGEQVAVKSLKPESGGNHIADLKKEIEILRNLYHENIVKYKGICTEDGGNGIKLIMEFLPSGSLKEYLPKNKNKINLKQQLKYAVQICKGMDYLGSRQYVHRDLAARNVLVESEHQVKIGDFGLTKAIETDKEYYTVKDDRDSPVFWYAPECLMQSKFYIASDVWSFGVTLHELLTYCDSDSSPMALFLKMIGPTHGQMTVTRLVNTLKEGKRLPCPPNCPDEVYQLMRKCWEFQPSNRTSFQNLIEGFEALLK
T8 sequence (Q15759 whole entry): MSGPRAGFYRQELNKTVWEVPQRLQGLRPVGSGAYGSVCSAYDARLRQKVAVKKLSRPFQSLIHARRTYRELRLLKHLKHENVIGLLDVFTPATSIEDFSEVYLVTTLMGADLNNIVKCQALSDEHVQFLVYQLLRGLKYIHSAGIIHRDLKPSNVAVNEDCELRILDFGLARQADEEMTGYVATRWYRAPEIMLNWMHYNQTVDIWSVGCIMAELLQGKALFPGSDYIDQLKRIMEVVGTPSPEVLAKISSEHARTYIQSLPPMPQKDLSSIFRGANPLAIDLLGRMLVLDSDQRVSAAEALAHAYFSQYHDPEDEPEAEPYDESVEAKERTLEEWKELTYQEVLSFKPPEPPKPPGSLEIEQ
T3 sequence (P54756 25-1037): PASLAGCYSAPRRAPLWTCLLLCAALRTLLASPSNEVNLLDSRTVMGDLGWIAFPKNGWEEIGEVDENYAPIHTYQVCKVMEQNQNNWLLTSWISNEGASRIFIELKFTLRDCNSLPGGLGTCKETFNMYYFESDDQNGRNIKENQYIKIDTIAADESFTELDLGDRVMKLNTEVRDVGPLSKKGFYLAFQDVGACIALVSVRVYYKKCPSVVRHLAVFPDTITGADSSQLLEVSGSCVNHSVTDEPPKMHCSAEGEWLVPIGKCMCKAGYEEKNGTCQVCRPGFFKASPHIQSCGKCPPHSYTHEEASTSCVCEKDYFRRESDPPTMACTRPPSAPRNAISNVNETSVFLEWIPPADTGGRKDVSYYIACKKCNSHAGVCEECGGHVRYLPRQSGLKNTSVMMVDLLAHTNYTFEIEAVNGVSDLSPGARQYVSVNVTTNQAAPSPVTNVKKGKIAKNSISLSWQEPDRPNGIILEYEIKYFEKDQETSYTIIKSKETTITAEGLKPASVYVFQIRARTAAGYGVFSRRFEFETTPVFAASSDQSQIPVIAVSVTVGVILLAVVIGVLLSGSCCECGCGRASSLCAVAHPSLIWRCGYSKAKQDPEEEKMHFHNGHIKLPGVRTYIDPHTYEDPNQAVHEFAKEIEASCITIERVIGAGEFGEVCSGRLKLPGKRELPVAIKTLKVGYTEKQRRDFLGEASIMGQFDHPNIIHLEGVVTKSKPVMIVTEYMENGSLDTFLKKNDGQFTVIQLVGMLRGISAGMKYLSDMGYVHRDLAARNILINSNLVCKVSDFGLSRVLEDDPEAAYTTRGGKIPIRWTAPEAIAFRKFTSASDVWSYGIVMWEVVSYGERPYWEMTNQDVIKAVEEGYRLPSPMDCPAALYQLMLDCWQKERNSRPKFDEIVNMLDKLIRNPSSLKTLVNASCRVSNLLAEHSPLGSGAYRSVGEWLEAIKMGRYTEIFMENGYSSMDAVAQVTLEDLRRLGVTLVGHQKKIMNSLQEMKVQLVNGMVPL
T25 sequence (O14965 whole entry): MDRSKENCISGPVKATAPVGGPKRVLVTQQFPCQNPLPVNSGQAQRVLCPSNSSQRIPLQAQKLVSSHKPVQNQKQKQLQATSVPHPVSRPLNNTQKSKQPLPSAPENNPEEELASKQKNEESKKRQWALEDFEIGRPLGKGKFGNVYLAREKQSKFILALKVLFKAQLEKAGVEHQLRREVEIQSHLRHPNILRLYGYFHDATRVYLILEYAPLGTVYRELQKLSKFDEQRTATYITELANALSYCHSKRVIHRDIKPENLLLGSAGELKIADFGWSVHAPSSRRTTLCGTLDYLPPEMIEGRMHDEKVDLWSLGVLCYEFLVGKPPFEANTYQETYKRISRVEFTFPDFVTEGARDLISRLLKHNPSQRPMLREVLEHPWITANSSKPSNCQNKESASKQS
T28 sequence (Q96SB4 whole entry): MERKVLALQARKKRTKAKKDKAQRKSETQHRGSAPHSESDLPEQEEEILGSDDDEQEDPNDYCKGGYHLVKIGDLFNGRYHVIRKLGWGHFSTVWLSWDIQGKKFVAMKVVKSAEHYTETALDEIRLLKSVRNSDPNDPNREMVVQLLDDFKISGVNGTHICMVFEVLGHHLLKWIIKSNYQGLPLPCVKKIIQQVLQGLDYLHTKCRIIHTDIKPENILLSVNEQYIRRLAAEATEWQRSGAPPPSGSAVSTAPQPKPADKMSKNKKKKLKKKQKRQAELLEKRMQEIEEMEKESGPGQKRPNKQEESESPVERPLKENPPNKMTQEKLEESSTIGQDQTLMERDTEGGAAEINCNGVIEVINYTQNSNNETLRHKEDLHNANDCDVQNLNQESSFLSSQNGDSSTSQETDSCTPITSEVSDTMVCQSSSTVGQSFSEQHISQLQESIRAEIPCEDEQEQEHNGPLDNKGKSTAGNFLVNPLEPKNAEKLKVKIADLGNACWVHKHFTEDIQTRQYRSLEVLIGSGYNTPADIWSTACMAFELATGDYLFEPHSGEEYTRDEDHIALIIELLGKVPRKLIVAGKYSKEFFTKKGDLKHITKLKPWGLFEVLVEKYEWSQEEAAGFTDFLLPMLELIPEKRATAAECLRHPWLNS
T22 sequence (P54764 20-986): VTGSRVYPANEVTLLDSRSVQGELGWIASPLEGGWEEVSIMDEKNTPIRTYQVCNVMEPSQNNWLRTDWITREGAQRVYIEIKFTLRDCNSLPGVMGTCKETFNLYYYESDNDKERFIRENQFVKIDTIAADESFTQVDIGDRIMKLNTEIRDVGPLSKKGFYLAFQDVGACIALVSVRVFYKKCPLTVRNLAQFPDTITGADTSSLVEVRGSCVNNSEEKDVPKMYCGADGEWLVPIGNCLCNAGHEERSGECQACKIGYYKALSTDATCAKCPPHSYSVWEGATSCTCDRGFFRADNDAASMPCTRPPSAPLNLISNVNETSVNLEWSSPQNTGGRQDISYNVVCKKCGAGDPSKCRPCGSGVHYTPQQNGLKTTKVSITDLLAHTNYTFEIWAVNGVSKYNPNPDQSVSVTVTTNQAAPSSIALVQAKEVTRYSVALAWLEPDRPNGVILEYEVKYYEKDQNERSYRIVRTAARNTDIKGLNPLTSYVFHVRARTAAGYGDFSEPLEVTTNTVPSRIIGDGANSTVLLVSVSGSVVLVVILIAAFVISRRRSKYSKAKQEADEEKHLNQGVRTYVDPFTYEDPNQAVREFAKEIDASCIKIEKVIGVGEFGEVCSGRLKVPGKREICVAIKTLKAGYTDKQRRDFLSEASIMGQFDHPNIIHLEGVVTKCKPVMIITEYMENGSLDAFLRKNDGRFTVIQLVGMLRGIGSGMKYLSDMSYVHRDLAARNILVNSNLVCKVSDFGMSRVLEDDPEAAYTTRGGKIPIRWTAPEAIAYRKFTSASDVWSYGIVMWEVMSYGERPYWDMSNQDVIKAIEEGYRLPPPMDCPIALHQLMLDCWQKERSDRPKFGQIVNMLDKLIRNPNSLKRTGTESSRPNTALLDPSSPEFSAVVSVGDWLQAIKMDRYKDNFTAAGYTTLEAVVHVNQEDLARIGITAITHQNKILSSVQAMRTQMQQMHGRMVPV

COc1ccc(-c2cc(C(=O)Nc3cc(-c4c(-c5ccc(F)cc5)noc4C(C)C)ccn3)n(CC3NCC(O)C3O)c2)cc1 (centres unmarked) [29d]
remaining activity at 1 µM (CDC7/DBF4): 94% | remaining activity at 1 µM (ACV-R2A): 125% | remaining activity at 1 µM (EPHA5): 103% | remaining activity at 1 µM (CAMK4): 102% | remaining activity at 1 µM (NLK): 71% | remaining activity at 1 µM (RPS6KA3): 107% | remaining activity at 1 µM (MYLK2): 97% | remaining activity at 1 µM (p38-beta): 74% | remaining activity at 1 µM (CK1-gamma2): 80% | remaining activity at 1 µM (SIK3): 104% | remaining activity at 1 µM (NEK7): 116% | remaining activity at 1 µM (CDK1/CycB1): 107% | remaining activity at 1 µM (IKK-epsilon): 94% | remaining activity at 1 µM (PHKG2): 93% | remaining activity at 1 µM (GSK3-alpha): 103% | remaining activity at 1 µM (BRSK1): 104% | remaining activity at 1 µM (HIPK1): 98% | remaining activity at 1 µM (CDK4/CycD3): 98% | remaining activity at 1 µM (VEGF-R3): 124% | remaining activity at 1 µM (JAK1 aa583-1154 wt): 104% | remaining activity at 1 µM (RPS6KA2): 93% | remaining activity at 1 µM (EPHA4): 100% | remaining activity at 1 µM (SLK): 114% | remaining activity at 1 µM (AMPK-alpha1 aa1-550): 99% | remaining activity at 1 µM (Aurora-A): 103% | remaining activity at 1 µM (DCAMKL2): 86% | remaining activity at 1 µM (TTK): 100% | remaining activity at 1 µM (SRPK1): 105% | remaining activity at 1 µM (MEKK2): 111%
